For one assay, the target named is T1, Vrg4 Y281F variant (Saccharomyces cerevisiae, UniProt P40107, Y281F).
T1 construct: GFP (cleaved yes); made in house; host or cells: S. cerevisiae strain BJ5460
In words: IC50 competition of 3H-GMP uptake into proteoliposomes, Y281F variant. It counts as biochemical. As for the experimental part:
(§1) Vrg4 was reconstituted into liposomes made from yeast polar lipids using the dilution method into preformed lipid vesicles. Chloroform was removed from yeast polar lipids (Avanti polar lipids) through the use of a rotary evaporator to obtain a thin film. The lipids were washed twice in pentane and then resuspended at 5 mg ml^−1 in lipid buffer (20 mM HEPES pH 7.5, 100 mM KCl). These lipid vesicles were frozen and thawed twice in liquid nitrogen and stored at −80 °C until required. For reconstitution, the lipids were thawed and then extruded first through a 0.8-μm filter and then through a 0.4-μm filter. Purified Vrg4 in DM (at 0.5 μg μl^−1 concentration) was added to the lipids at a final lipid:protein ratio of 80:1 and incubated for 1 h at room temperature, then for a further 1 h on ice; for the no-protein liposome control, the same volume of gel filtration buffer containing 0.3% DM was added. […] The amount of protein (both wild-type and mutant variants) reconstituted into the lipids was quantified by SDS–PAGE and densitometry.
(§2) To analyse transport activity, proteoliposomes were thawed and the desired concentration of internal substrate was added (typically 0.5 mM for mutant variant analysis). […] The amount of GMP transported inside the liposomes was calculated by scintillation counting in Ultima Gold (Perkin Elmer) […]

A further assay concerns the target T2, Vrg4 S266A variant (Saccharomyces cerevisiae, UniProt P40107, S266A).
T2 construct: GFP (cleaved yes); made in house; host or cells: S. cerevisiae strain BJ5460
In words: IC50 competition of 3H-GMP uptake into proteoliposomes, S266A variant. It counts as biochemical. The settings on record: in words. As for the experimental part:
as §1, §2

The target in the next assay is T3, Vrg4 S269A variant (Saccharomyces cerevisiae, UniProt P40107, S269A).
T3 construct: GFP (cleaved yes); made in house; host or cells: S. cerevisiae strain BJ5460
T3 sequence (P40107 whole entry S269A): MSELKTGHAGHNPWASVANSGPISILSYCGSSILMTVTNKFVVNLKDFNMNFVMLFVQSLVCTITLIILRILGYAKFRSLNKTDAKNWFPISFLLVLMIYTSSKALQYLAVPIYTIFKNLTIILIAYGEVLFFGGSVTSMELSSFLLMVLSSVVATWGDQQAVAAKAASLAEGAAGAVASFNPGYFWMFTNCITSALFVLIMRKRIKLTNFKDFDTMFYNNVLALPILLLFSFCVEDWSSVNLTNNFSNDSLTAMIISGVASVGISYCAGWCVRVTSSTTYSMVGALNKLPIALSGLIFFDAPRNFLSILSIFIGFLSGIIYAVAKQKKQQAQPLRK
Put plainly: IC50 competition of 3H-GMP uptake into proteoliposomes, S269A variant. It counts as biochemical. The conditions noted are these: S269A variant (removal of S269); in words. As for the experimental part:
as §1, §2

Another assay has as its system Vrg4 wild type (WT). On the set-up: method as in PMID 29143814. The settings on record: WT Vrg4 in yeast polar lipid liposomes, 0.5 mM GMP inside, 3H-GMP uptake, cold competitor outside, 3 min; WT data published previously ref 10; cited from earlier work.
Assay [1] addresses T4, Vrg4 (Saccharomyces cerevisiae, UniProt P40107).
T4 construct: GFP (cleaved yes); made in house; host or cells: S. cerevisiae strain BJ5460
T4 sequence (P40107 1-337): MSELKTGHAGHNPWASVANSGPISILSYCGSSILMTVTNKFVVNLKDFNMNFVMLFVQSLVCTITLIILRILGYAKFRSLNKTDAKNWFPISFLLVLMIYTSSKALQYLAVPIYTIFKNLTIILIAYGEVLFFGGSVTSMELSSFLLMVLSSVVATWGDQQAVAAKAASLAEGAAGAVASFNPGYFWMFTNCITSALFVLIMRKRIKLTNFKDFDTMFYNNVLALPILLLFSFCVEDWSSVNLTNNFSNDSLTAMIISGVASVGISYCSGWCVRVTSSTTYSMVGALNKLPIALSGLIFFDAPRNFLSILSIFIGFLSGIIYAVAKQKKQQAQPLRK
Also noted: method as in PMID 29143814. The settings on record: GDP-mannose:GMP compared with GMP:GMP in liposome-based assays ref 10; cited from earlier work.

In assay [2] the target is T4, Vrg4. Put plainly: Liposome-based transport rates under different antiport conditions. It counts as biochemical. The settings on record: 22 °C, rank among antiport conditions. As for the experimental part:
as §1, §2

The target of another assay is T5, Vrg4 N221A variant (Saccharomyces cerevisiae, UniProt P40107, N221A).
T5 construct: GFP (cleaved yes); made in house; host or cells: S. cerevisiae strain BJ5460
T5 sequence (P40107 whole entry N221A): as the sequence (P40107 whole entry S269A) above, with N221A, A269S counted along it
Put plainly: IC50 competition of 3H-GMP uptake into proteoliposomes, N221A variant. It counts as biochemical. As for the experimental part:
as §1, §2

For assay [3], the target named is T6, Vrg4 K118A variant (Saccharomyces cerevisiae, UniProt P40107, K118A).
T6 construct: GFP (cleaved yes); made in house; host or cells: S. cerevisiae strain BJ5460
Put plainly: Thermal stability in the presence of ligand, K118A variant. It counts as binding. The settings on record: 1 mM GMP. As for the experimental part:
(§3) Thermal stability of protein samples was analysed using a Prometheus NT.48 (NanoTemper Technologies)[39]. The proteins were diluted to a final concentration of 0.7 mg ml^−1 into buffer containing 20 mM Hepes, pH 7.5, 50 mM KCl, 2 mM magnesium sulphate and 0.03% (w/v) DDM or 0.3% DM. Thermal measurements were carried out in a range from 20 to 95 °C with 1 °C per min steps. The resulting melting curves were generated by plotting the first derivative of the fluorescence ratio at 330 nm/350 nm (excitation 280 nm) against temperature. For stability in the presence of ligand (GMP) the ligand was added to the sample at a final concentration of 0.5 mM and the sample was incubated at room temperature for 5 min prior to analysis. For the sample in liposomes, reconstituted Vrg4, at a protein concentration of 0.4 mg ml^−1, in yeast polar lipids were prepared in 20 mM Hepes, pH 7.5, 50 mM KCl, 2 mM magnesium sulphate and extruded through a 0.4 μm membrane prior to analysis. For the solubilised liposome sample, liposomes were solubilised in 1.5% DDM for one hour and centrifuged at 100,000 × g for 30 min prior to analysis.

In the next assay the target is T7, Vrg4 N220A variant (Saccharomyces cerevisiae, UniProt P40107, N220A).
T7 construct: GFP (cleaved yes); made in house; host or cells: S. cerevisiae strain BJ5460
T7 sequence (P40107 whole entry N220A): as the sequence (P40107 whole entry S269A) above, with N220A, A269S counted along it
Put plainly: IC50 competition of 3H-GMP uptake into proteoliposomes, N220A variant. It counts as biochemical. As for the experimental part:
as §1, §2

A further assay concerns the target T8, Vrg4 Y281A variant (Saccharomyces cerevisiae, UniProt P40107, Y281A).
T8 construct: GFP (cleaved yes); made in house; host or cells: S. cerevisiae strain BJ5460
Put plainly: Thermal stability in the presence of ligand, Y281A variant. It counts as binding. The conditions noted are these: 1 mM GMP, N=3. As for the experimental part:
as §3

The target of assay [4] is T9, Vrg4 K118A variant (Saccharomyces cerevisiae, UniProt P40107 1-337, K118A).
T9 sequence: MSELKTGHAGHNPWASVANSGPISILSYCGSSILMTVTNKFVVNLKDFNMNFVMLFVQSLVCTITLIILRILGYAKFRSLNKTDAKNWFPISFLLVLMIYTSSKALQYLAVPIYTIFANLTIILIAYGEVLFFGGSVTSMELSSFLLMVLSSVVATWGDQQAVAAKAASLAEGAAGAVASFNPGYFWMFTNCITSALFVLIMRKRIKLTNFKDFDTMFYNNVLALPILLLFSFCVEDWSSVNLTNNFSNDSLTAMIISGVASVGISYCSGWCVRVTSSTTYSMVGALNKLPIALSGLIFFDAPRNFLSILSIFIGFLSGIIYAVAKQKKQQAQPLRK
Put plainly: cell-based or functional assay.

Here are results for four molecules from PMC6789118, “Structural basis for substrate specificity and regulation of nucleotide sugar transporters in the lipid bilayer” (Nature Communications, 2019).

Usually IC50 stands for the concentration at which inhibition is half-maximal.

T2 sequence (P40107 whole entry S266A): as the sequence (P40107 whole entry S269A) above, with S266A, A269S counted along it
T1 sequence (P40107 whole entry Y281F): as the sequence (P40107 whole entry S269A) above, with A269S, Y281F counted along it
T8 sequence (P40107 whole entry Y281A): as the sequence (P40107 whole entry S269A) above, with A269S, Y281A counted along it

Turning to `Nc1nc2c(ncn2[C@@H]2O[C@H](COP(=O)(O)OP(=O)(O)O[C@H]3O[C@H](CO)[C@@H](O)[C@H](O)[C@@H]3O)[C@@H](O)[C@H]2O)c(=O)[nH]1` [GDP-mannose], the “affinity of the variant compared with wild type” value at Vrg4 Y281F variant (Y281F variant, IC50 analysis, in words) is “remains the same as wild type”. Moreover, the “affinity compared with WT” value at Vrg4 S266A variant (IC50 analysis) was “only slightly reduced”. Further, at Vrg4 S269A variant, the “change in the IC50 compared with WT” value is on record as “did not result in any significant change”. Besides, the IC50 with Vrg4 wild type (WT) was 7.6 µM. Further, the transport efficiency entry at Vrg4 [1] was “more efficient”. Besides, the transport rate result on Vrg4 [2] (GDP-mannose:GDP-mannose antiport (transported against itself), 0.5 mM inside, 20 μM outside) was “fastest”.
As to `Nc1nc2c(ncn2[C@@H]2O[C@H](COP(=O)(O)O)[C@@H](O)[C@H]2O)c(=O)[nH]1` [GMP, guanine monophosphate], the IC50 was 22 µM on Vrg4 N221A variant, 23 µM on Vrg4 Y281F variant, 12 µM at Vrg4 N220A variant and 7 µM with Vrg4 wild type (WT). Besides, at Vrg4 S266A variant, the “IC50 value for GMP transport compared with WT” value was “significant increase”. The “thermal stabilisation of the protein by ligand” value is “stabilised to a similar extent as WT Vrg4” on Vrg4 K118A variant [3] and “not stabilised” at Vrg4 Y281A variant. For the same molecule, the “change in the IC50 compared with WT” value on Vrg4 S269A variant was “did not result in any significant change”. Besides, the transport rate result at Vrg4 [2] (GMP:AMP antiport, 1 mM AMP inside, 20 μM GMP outside) is given as “slowest”.
Regarding `Nc1ncnc2c1ncn2[C@@H]1O[C@H](COP(=O)(O)O)[C@@H](O)[C@H]1O` [AMP], the IC50 on Vrg4 N221A variant is 27 µM; in the assay with Vrg4 wild type (WT), 50 µM. The “affinity compared with WT” value at Vrg4 N220A variant (N220A variant, IC50 analysis, in words) is listed as “markedly reduced”.

B1: Vrg4, GDP-mannose transporter from Saccharomyces cerevisiae (wild type) (natural protein)
chain: MSELKTGHAGHNPWASVANSGPISILSYCGSSILMTVTNKFVVNLKDFNMNFVMLFVQSLVCTITLIILRILGYAKFRSLNKTDAKNWFPISFLLVLMIYTSSKALQYLAVPIYTIFKNLTIILIAYGEVLFFGGSVTSMELSSFLLMVLSSVVATWGDQQAVAAKAASLAEGAAGAVASFNPGYFWMFTNCITSALFVLIMRKRIKLTNFKDFDTMFYNNVLALPILLLFSFCVEDWSSVNLTNNFSNDSLTAMIISGVASVGISYCSGWCVRVTSSTTYSMVGALNKLPIALSGLIFFDAPRNFLSILSIFIGFLSGIIYAVAKQKKQQAQPLRK
Consider B1, for which the “dominant negative assay: transport of 3H-GMP into liposomes reconstituted with equimolar WT and K118A (also at 75 and 25% WT), relative to WT alone” value with Vrg4 K118A variant [4] is roughly 75%.
